The values below come from ChEMBL document CHEMBL1201862, “PubChem BioAssay data set” (2004).

Where “and” joins values, the source holds several entries; their conditions need not be identical. Equal entries are not always repeated. Calls of active or inactive are those of the source.

One experiment deals with X-box-binding protein 1 (Homo sapiens, UniProt P17861). The format is functional, Cricetulus griseus.
A further experiment concerns the target T1, Streptokinase A (Streptococcus pyogenes serotype M1, UniProt P10520).
T1 sequence (P10520 whole entry): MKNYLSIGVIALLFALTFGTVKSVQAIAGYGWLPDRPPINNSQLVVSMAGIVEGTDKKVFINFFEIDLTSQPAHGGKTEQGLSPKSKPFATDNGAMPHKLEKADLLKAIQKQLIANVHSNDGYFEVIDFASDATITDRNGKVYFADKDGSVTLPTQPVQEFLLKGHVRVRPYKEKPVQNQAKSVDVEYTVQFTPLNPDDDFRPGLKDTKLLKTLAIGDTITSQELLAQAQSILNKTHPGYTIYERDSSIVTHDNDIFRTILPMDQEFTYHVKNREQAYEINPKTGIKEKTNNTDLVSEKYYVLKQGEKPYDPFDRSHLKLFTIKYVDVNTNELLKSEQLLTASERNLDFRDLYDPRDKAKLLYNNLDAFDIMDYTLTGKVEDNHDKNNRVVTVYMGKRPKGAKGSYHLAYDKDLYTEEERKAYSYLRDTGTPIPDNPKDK
Description: S. pyogenes streptokinase expression inhibitors, potency, dose response, plasminogen activation absorbance, OD405 (AID 1914).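 Further: secreted streptokinase activity via plasminogen activation per viability signal from cell pellet.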 It counts as functional, Streptococcus pyogenes M1 GAS.

In a further experiment the test system is Streptococcus. The experiment is described as follows: Group A Streptococcus viability loss, dose response, counter-screen for streptokinase expression inhibitor project, luminescence, BacTiterGlo (AID 1915).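 Further: potency for reduction of bacterial viability or growth.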 The format is functional, organism-based.
For experiment [1], the system named is Streptococcus sp. 'group A'. The experiment is described as follows: growth inhibition of control SK(-) GAS strain, dose response, counter-screen for streptokinase expression inhibitor project, luminescence, kanamycin, BacTiterGlo, confirmation (AID 1900). The format is functional, organism-based.
Another experiment addresses NS3 (Hepatitis C virus, UniProt A3EZJ3). The experiment is described as follows: PubChem AID 2173. Also on record: species or system Hepacivirus hominis.
The target in experiment [2] is Protein-tyrosine kinase 2-beta (Homo sapiens, UniProt Q14289).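 Further: potency of inhibitors of PYK2 kinase phosphorylation of poly-GT substrate.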
In experiment [3] the target is Eukaryotic translation initiation factor 4E (Mus musculus, UniProt P63073). Description: eIF4E–eIF4G protein interaction inhibitors, dose response, biochemical, TR-FRET (AID 855).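 Further: potency for disrupting eIF4E binding to eIF4GI seen as loss of FRET.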 It counts as functional. (TR-FRET usually uses a lanthanide donor and a delayed reading to cut background.)
Experiment [4] concerns the target T2, Tyrosine-protein phosphatase non-receptor type 7 (Homo sapiens, UniProt P35236).
T2 sequence (P35236 whole entry): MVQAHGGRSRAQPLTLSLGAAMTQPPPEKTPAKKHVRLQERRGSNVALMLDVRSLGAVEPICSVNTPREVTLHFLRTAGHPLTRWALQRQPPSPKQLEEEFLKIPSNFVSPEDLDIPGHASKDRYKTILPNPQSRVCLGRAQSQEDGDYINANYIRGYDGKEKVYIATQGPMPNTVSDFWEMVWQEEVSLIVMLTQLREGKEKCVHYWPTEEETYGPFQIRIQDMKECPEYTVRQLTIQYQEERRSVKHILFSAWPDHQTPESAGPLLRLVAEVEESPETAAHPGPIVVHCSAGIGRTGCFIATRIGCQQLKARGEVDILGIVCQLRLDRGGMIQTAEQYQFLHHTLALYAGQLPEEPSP
The experiment is described as follows: redox-dependent HePTP inhibition, mechanism study, biochemical, fluorescence (AID 2068). The format is functional.

Experiment [5] can be described thus: compounds displacing fluorescent intercalator from DNA, dose response, counter-screen for HCV NS3 helicase inhibitor project, biochemical, fluorescence (AID 2172).
For another experiment, the target named is Genome polyprotein (Hepatitis C virus, UniProt Q2Q167). The experiment is described as follows: HCV core protein dimerization inhibitors, dose response, biochemical, TR-FRET (AID 2159).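 Further: blocks dimerization of HCV core protein measured by TR-FRET between tagged core106 pairs.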 The arrangement: species or system Hepacivirus hominis.
The target of a further experiment is Bcl-2-like protein 10 (Homo sapiens, UniProt Q9HD36). Description: displacers of TR3 peptide from Bcl-B, primary screen, selectivity assay for Bfl-1 inhibitor project, biochemical, fluorescence polarization, FITC-TR3 peptide (AID 748).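 Further: fluorescence polarization from a fluorescein-labelled TR3 peptide binding purified Bcl-B.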
A short description of experiment [6]: Cytotoxicity screening for potential Inhibitors of Bacterial Capsule Biogenesis. [Related pubchem assays (depositor defined):AID488970]. The format is functional.
Experiment [7] addresses Dual specificity tyrosine-phosphorylation-regulated kinase 1A (Rattus norvegicus, UniProt Q63470). It counts as biochemical, Homo sapiens.
Experiment [8] is described as follows: HeLa cell cytotoxicity, dose response, cytotoxicity control for MgcRacGAP inhibitor project (AID 624300). It counts as functional.
Experiment [9] addresses T3, DNA repair protein RAD52 homolog (Homo sapiens, UniProt P43351).
T3 sequence (P43351 whole entry): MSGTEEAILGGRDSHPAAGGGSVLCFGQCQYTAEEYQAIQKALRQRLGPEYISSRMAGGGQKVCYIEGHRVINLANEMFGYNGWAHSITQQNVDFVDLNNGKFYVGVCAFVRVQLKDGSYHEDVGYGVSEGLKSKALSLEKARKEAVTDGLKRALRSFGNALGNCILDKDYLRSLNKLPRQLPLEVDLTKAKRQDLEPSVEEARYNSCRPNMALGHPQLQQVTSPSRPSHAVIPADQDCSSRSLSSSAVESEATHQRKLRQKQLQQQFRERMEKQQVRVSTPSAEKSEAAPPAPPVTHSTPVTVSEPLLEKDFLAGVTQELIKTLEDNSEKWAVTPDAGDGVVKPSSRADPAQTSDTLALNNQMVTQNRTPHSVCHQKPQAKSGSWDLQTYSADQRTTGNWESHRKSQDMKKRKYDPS
The format is functional, biochemical.

Experiment [10] in a line: human group III sPLA2 inhibitors, dose response, biochemical, QFRET, IC50 (AID 743457).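 Further: green fluorescence rise as the enzyme cleaves BODIPY PC-A2 in liposomes; potency for inhibition of the enzyme.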
The target of experiment [11] is T4, Rac GTPase-activating protein 1 (Homo sapiens, UniProt Q9H0H5).
T4 sequence (Q9H0H5 whole entry): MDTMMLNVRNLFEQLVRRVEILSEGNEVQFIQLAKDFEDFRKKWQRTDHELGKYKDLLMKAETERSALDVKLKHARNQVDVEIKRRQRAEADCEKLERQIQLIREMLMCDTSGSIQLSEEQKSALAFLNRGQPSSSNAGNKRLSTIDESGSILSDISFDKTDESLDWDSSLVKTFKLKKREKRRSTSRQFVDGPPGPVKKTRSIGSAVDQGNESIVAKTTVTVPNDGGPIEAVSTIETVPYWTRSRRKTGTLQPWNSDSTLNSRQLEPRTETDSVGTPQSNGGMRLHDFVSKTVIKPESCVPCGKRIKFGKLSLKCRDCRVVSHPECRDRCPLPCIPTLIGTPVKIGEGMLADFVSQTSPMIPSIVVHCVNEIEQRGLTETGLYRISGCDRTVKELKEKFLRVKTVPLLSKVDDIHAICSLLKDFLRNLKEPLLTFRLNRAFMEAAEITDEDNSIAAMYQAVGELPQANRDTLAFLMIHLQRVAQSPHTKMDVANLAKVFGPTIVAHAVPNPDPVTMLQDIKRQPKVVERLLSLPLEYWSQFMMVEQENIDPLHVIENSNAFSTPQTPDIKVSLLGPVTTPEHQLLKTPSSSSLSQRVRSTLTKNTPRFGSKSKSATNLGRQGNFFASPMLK
The experiment is described as follows: MgcRacGAP GTPase-activating activity inhibitors, confirmation, biochemical, ADP Hunter fluorescence, primary and confirmatory (AID 624330). It counts as functional.

Another experiment has as its target Nonstructural protein 1 (Influenza A virus, UniProt Q194T2). It counts as functional, Influenza A virus (A/California/07/2009(H1N1)).
Experiment [12] addresses T5, Histone-lysine N-methyltransferase NSD2 (Homo sapiens, UniProt O96028).
T5 sequence (O96028 whole entry): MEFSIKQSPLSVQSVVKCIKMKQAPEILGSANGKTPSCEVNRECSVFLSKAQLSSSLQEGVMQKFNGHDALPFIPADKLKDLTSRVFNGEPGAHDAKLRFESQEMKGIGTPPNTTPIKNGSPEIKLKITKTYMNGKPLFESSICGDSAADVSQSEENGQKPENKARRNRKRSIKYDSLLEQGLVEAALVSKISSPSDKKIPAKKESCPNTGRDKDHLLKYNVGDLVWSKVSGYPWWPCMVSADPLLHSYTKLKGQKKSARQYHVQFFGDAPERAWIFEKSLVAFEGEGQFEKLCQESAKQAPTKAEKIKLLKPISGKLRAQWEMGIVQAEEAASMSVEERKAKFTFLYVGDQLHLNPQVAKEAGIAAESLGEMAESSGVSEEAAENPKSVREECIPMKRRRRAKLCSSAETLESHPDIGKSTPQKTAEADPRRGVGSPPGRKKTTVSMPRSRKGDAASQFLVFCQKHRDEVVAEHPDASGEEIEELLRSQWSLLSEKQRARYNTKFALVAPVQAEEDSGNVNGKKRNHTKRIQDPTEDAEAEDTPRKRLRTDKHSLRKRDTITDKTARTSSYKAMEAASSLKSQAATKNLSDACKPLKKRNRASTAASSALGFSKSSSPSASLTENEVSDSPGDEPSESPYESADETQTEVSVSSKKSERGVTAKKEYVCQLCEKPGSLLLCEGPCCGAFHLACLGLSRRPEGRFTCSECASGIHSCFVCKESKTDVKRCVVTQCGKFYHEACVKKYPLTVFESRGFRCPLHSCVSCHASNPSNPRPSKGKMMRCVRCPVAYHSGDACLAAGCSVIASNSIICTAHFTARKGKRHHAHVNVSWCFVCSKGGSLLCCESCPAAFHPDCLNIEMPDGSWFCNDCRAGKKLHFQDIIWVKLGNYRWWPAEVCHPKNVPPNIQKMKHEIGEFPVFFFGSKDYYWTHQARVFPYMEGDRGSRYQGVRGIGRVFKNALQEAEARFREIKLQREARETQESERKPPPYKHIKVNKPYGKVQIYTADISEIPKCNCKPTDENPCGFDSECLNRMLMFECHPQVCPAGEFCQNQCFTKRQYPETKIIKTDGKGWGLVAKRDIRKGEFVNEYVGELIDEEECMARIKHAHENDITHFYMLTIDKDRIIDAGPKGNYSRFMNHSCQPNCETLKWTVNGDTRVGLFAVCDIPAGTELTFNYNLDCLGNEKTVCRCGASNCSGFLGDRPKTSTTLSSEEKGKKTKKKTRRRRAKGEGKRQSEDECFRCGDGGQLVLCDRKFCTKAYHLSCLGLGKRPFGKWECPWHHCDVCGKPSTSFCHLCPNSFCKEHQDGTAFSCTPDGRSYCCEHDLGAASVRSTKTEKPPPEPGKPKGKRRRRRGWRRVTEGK
It counts as biochemical.
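Wherever Absolute IC50 (XBP1) is given: confirmatory dose-response counter-screen serving a CHOP assay.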

Chain of NS3 (A3EZJ3 whole entry): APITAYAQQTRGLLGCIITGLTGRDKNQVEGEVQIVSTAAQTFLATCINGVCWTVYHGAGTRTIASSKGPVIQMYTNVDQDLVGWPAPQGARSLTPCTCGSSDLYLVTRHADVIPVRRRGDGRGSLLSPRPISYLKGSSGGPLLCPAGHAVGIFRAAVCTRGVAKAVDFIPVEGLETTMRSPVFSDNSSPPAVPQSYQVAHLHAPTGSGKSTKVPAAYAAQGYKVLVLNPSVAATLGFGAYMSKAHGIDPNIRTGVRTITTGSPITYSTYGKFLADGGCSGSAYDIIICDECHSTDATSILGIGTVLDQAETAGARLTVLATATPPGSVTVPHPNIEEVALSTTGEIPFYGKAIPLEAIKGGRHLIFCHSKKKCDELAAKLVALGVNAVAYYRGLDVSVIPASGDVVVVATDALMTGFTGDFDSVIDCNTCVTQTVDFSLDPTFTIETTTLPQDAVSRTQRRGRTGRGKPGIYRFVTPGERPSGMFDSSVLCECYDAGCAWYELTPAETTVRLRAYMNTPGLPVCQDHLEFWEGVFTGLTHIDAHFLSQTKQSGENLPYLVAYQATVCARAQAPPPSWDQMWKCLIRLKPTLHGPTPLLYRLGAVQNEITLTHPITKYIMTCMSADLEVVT
Chain of Nonstructural protein 1 (Q194T2 whole entry): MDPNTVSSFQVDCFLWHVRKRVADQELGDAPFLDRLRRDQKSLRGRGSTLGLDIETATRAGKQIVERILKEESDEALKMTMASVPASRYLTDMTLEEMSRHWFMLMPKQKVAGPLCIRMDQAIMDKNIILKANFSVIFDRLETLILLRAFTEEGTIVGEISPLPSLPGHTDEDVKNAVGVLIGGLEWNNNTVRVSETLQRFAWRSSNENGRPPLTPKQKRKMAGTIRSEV
Chain of X-box-binding protein 1 (P17861 whole entry): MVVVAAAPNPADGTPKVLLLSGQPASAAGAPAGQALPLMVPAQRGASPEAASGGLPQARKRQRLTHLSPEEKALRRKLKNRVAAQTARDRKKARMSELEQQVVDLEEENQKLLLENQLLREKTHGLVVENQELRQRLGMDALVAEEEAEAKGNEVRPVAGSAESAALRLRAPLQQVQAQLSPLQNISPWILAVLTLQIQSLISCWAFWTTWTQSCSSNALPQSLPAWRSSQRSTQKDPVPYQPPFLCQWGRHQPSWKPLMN
Chain of Protein-tyrosine kinase 2-beta (Q14289 whole entry): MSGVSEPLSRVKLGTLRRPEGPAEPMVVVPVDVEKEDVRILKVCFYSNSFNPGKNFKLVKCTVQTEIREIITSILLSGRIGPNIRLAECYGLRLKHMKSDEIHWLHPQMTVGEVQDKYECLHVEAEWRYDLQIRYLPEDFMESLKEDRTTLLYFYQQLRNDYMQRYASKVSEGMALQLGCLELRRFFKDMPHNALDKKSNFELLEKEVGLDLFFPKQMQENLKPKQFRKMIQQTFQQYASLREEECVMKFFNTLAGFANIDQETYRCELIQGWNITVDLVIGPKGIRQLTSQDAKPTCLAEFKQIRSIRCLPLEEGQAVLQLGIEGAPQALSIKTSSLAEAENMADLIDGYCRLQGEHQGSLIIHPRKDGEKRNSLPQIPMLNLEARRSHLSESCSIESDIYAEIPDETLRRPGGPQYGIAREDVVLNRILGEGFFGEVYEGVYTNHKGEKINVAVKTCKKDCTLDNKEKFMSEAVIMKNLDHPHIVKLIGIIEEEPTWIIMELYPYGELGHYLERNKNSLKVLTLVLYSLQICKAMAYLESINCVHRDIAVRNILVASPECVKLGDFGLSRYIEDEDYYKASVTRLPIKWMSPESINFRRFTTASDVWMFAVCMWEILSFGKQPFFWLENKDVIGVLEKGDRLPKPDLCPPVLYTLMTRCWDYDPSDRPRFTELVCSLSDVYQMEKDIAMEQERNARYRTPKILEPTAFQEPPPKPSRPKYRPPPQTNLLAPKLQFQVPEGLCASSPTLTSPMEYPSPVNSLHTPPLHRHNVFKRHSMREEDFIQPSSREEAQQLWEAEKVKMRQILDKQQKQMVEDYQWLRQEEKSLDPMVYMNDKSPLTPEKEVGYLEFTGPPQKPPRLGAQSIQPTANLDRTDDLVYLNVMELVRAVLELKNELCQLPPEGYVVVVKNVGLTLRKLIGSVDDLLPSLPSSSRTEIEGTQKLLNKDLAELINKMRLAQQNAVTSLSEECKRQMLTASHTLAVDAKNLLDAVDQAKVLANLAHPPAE
Chain of Bcl-2-like protein 10 (Q9HD36 whole entry): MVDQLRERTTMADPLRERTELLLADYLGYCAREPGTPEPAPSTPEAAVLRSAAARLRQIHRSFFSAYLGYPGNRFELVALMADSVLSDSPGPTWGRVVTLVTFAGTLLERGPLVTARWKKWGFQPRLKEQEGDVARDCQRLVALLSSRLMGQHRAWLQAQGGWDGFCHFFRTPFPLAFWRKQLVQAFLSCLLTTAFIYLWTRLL
Chain of Genome polyprotein (Q2Q167 whole entry): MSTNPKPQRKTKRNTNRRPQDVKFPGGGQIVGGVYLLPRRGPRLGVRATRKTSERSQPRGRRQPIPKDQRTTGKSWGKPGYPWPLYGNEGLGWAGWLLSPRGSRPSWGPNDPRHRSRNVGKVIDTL
Chain of Eukaryotic translation initiation factor 4E (P63073 whole entry): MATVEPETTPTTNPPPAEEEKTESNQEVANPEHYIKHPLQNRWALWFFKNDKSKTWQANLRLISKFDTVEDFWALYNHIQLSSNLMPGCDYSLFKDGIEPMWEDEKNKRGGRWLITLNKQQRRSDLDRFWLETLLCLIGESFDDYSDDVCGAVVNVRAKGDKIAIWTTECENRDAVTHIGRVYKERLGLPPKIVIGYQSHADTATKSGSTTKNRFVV

As to `Cc1cc(O)c(NC(=S)NC(=O)c2ccc(-c3ccc(Cl)cc3)o2)cc1C`, the “Absolute IC50 (XBP1)” value at X-box-binding protein 1 was 10 µM. The EC50 on Streptokinase A was > 150 µM (not active); in the experiment on Streptococcus, 12.2 µM (active); in experiment [1] it was 0.959 µM (active).
With `CC(=O)c1ccc(NC(=O)c2ccc3nc(-c4ccco4)c(-c4ccco4)nc3c2)cc1`, the IC50 was 5.88 µM (active) on NS3; 1.24 µM (active) in experiment [2]; > 64 µM (inactive) in experiment [3]; 998 nM (active) and 805 nM (active) in [4]; 83.5 µM (not active) in experiment [5]; > 49.8 µM (not active) at Genome polyprotein. The IC50 on Bcl-2-like protein 10 is 14.6 µM (active).
In the case of `O=C1c2c(O)ccc(O)c2C(=O)c2c(NCCNCCO)ccc(NCCNCCO)c21` [MITOXANTRONE], the figures for the CC50 in experiment [6] and in [8] were < 0.38 µM (active) and 6.34 µM (active), respectively. The AC50 is 1.25 µM (active) in experiment [7], < 0.244 µM (active) in [9] and 2.34 µM (active) in experiment [12]. Also, the figures for the IC50 (in experiment [10]; in experiment [11]; on Nonstructural protein 1) were > 122 µM (inactive), 14.5 µM (active) and 2.05 µM (active), respectively.

By EC50 is commonly meant the concentration needed to bring the measured effect to its halfway point. As a reminder, the IC50 is the midpoint of a concentration-inhibition curve. For orientation: CC50 means the concentration giving 50% cytotoxicity. Broadly, the AC50 is the midpoint of the concentration-response curve, whichever way the signal moves.
